According to patent publication US6902903B1, “Helicobacter pylori diagnostics” (Chiron Corporation, priority 1996, dated 2005):
Like-named read-outs stand apart in the source and are kept apart here.

B1: CagA: Recombinant truncated CagA of 268 amino acids, 29.2 kDa, Glu-748 through Glu-1015, H. pylori strain Chetx-1 (protein, listed as Helicobacter pylori)
chain: MEFKNGKNKDFSKVTQAKSDLENSIKDVIFNQKITDKVDDLNQAVSVAKATGDFSRVEQALADLKNFSKEQLAQQAQKNESLNAGKKSEIYQSVKNGVNGTLVGNGLSQAEATTLSKNFSDIKKELNAKLFGNFNNNNNNGLKNSTEPIYAKVNKKKTGQVASPEEPIYTQVAKKVNAKIDRLNQIASGLGGVGKAAGFPLKRHDKVDDLSKVGRSVSPEPIYATIDDLGGPFPLKRHDKVDDLSKVGLSRNQELAQKIDNLNQAVSE

Legend:
[1] = tested on: H. pylori antibodies in serum sample; experiment: H. pylori strip immunoblot assay (SIA), band reactivity of immobilized antigens with serum samples; type: binding, human; design: key: band intensity 0 to 4+ vs IgG controls (low IgG = 1+, high = 3+)
Experimental: A. An SIA was done as follows. An H. pylori extract containing a mixture of antigens including type-common antigens was obtained from Bioseed, Inc., Hillsborough, Calif. Briefly, the extract was prepared from an H. pylori bacterium obtained from the American Type Culture Collection (ATCC) having an ATCC strain designation of ATCC 43504. The extract was prepared using detergent extraction and sonication.
The VacA and CagA type-specific antigens, described in Examples 1 and 2, respectively, were applied in discrete bands to nitrocellulose strips at concentrations of 1-2 μg/ml. The lysate including the type-common antigens was coated as another discrete band at a concentration of 0.5-1 μg/ml onto the same nitrocellulose strips. As internal controls, additional bands contained purified human IgG at a low (100-185 ng/ml) and high (500-925 ng/ml) concentration. Other strips were coated with the antigens and lysate as described above, however, on these strips, the lysate was first enhanced with the VacA and CagA antigens added to the lysate at a concentration of 0.5-1 μg/ml (VacA) and 0.5-μg/ml (CagA). FIG. 1 is a diagram of a nitrocellulose strip with the antigens as described above.
For the immunoblot assay, strips were processed in a batch fashion with 30 strips per batch. All steps were performed at room temperature. Each strip was numbered and then placed in a separate tube to which was added 1 ml of diluent (phosphate-buffered saline (PBS) with bovine protein stabilizers and detergents, 0.1% sodium azide and 0.05% gentamicin sulfate as preservatives) and 30 μl of a serum sample from an individual known to be infected with H. pylori Type I, suspected of being infected with H. pylori Type I or a control subject, was applied. The tubes were rocked gently for 4 h, the solution removed by aspiration, and 1 ml of fresh diluent was added to each tube. The tubes were rocked for 30 minutes, the solution removed by aspiration and 1 ml of wash buffer made from wash buffer concentrate (50×) (phosphate-buffered detergent solution with 0.01% thimerosal as a preservative) was added to each tube. The contents of each tube were emptied into a single wash vessel and the strips were washed by swirling for 20 seconds. The wash buffer was decanted and 30 ml of fresh buffer added and the process repeated. Residual solution was removed by aspiration and 20 ml of conjugate solution (peroxidase-labeled goat anti-human IgG (heavy and light chains), with bovine protein stabilizers, containing 0.01% thimerosal as a preservative) was added. The vessel was rotated at 110 rpm for 10 minutes, the conjugate solution was decanted and the wash step was repeated three times. Residual solution was again removed by aspiration and 20 ml of substrate/developer (4-chloro-1-napthol in methanol/phosphate-buffered hydrogen peroxide) added, followed by rotation for 15-20 minutes at 110 rpm. The solution was decanted and the strips were washed twice in distilled water. Developed strips were placed face up on absorbent paper and allowed to dry for 30 minutes in the dark. Strips were then read within 3 h of drying. The intensity of the color of the H. pylori antigen bands were assigned values ranging from −(0) to 4+using the following algorithm. The low IgG band is assigned a value of 1+, the high IgG band is assigned a value of 3+. The lysate and VacA and CagA bands are then scored from 0 to 4+according to how their band intensity compares to that of the IgG control bands.
Samples with any of the H. pylori antigen bands scoring 1+ or greater to the lysate band are considered to be positive for H. pylori infection. Reactivity of 1+ or greater to the lysate band, in addition to reactivity of 1+ or greater to the CagA and/or VacA band, is considered positive for H. pylori Type I infection. Samples showing no reactivity of 1+ or greater to any bands are considered negative. […]

H. pylori infection [2] = experiment: Antibiotic therapy of H. pylori infection, response monitored by SIA; type: in vivo, Helicobacter pylori; settings: individuals undergoing antibiotic regimen, determined with the SIA
Experimental: For the immunoblot assay, strips were processed in a batch fashion with 30 strips per batch. All steps were performed at room temperature. Each strip was numbered and then placed in a separate tube to which was added 1 ml of diluent (phosphate-buffered saline (PBS) with bovine protein stabilizers and detergents, 0.1% sodium azide and 0.05% gentamicin sulfate as preservatives) and 30 μl of a serum sample from an individual known to be infected with H. pylori Type I, suspected of being infected with H. pylori Type I or a control subject, was applied. The tubes were rocked gently for 4 h, the solution removed by aspiration, and 1 ml of fresh diluent was added to each tube. The tubes were rocked for 30 minutes, the solution removed by aspiration and 1 ml of wash buffer made from wash buffer concentrate (50×) (phosphate-buffered detergent solution with 0.01% thimerosal as a preservative) was added to each tube. The contents of each tube were emptied into a single wash vessel and the strips were washed by swirling for 20 seconds. The wash buffer was decanted and 30 ml of fresh buffer added and the process repeated. […] Strips were then read within 3 h of drying. […] The lysate and VacA and CagA bands are then scored from 0 to 4+according to how their band intensity compares to that of the IgG control bands. […]

H. pylori infection [3] = settings: individuals undergoing antibiotic regimen for H. pylori infection; cited from earlier work
antibodies to CagA = settings: cited from earlier work
[4] = Responder to antibiotic therapy, Prebleed

Row | Molecule | Band reactivity (intensity value), therapy monitoring ([1]; Non-Responder, 8 M) | Band reactivity (intensity value), therapy monitoring ([1]; Non-Responder, 16 M) | Band reactivity (intensity value), therapy monitoring ([1]; Non-Responder, Prebleed) | Band reactivity (intensity value), therapy monitoring [1, 4] | Band reactivity (intensity value), therapy monitoring ([1]; Responder, 1 M) | Band reactivity (intensity value), therapy monitoring ([1]; Responder, 3 M) | Band reactivity (intensity value), therapy monitoring ([1]; Responder, 6 M) | Band reactivity (intensity value), therapy monitoring ([1]; Responder, 9 M) | Band reactivity (intensity value), therapy monitoring ([1]; Responder, 12 M) | % Responders by SIA (H. pylori infection [2]) | Responders (responders/tested) by SIA (H. pylori infection [2]) | Response Rate Reported (H. pylori infection [3]) | patients CagA seropositive (antibodies to CagA; patients suffering from gastric ulcer) | patients CagA seropositive (antibodies to CagA; patients with duodenal ulcer or duodenitis)
1 | VacA: Recombinant 71.2 kDa fusion: 154 aa human SOD, five aa linker, VacA Gly-311 through Ile-819 of H. pylori CCUG17874 | 2.49 | 2.10 | 2.54 | 0.31 | 0.26 | 0.33 | 0.29 | 0.21 | 0.18 |  |  |  |  | 
2 | Cc1ncc([N+](=O)[O-])n1CCO [Single, Metronidazole] |  |  |  |  |  |  |  |  |  | 20% | 1/5 | 19% |  | 
3 | B1 | 0.99 | 0.90 | 1.31 | 1.92 | 1.69 | 1.09 | 0.90 | 0.73 | 0.43 |  |  |  | more than 70% | more than 95%
